What all share (assay): activity assay
What all share (type): biochemical

One assay has as its target T1, CHMO (Acinetobacter johnsonii, UniProt P12015).
T1 construct: gene chnB; details only in supplement

Another assay has as its target T2, AspRedAm (Aspergillus oryzae, UniProt Q2TW47).
T2 construct: gene AO090010000708; details only in supplement
T2 sequence (Q2TW47 1-295): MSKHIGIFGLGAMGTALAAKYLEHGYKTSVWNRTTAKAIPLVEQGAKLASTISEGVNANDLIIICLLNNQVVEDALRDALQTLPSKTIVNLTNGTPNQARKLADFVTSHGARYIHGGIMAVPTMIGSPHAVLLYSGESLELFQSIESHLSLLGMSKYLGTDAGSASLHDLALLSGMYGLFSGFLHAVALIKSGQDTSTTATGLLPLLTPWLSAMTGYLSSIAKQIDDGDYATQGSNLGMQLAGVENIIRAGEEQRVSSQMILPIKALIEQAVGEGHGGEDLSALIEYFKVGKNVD
Conditions: 100 mM Tris-HCl pH 8.2, 5 mM hexanal, 10 mM amine, 1 mM cofactor, 30 °C.

The next assay concerns the target T3, TsER (Thermus scotoductus, UniProt B0JDW3).
T3 construct: gene chrR; details only in supplement

T1 sequence (P12015 whole entry): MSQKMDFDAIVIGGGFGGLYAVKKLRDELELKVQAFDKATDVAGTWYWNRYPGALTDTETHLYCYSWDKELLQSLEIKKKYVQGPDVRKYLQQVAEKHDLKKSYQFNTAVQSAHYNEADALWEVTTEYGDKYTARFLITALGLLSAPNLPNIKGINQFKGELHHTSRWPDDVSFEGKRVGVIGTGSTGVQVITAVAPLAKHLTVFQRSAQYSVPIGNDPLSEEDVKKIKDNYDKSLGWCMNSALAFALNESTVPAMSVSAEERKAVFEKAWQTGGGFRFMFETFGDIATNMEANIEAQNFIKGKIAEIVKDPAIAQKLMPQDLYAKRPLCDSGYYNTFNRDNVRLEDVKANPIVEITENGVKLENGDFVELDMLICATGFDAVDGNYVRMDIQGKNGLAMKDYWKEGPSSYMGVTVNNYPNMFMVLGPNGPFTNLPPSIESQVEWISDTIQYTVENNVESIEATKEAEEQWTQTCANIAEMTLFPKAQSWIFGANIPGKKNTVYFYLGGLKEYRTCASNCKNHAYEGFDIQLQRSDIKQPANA

With `NC(=O)C1=CN([C@@H]2C[C@H](COP(=O)(O)OP(=O)(O)OC[C@H]3O[C@@H](n4cnc5c(N)ncnc54)[C@H](OP(=O)(O)O)[C@@H]3O)[C@@H](O)[C@H]2O)C=CC1` [carba-NADPH], the activity assay result at CHMO is “two Baeyer‐Villiger‐monoxygenases (CHMO and HAPMO)”; on AspRedAm, “Both gave comparable results with the natural and carba cofactor”; at TsER it was “enoate reductase (TsER from Thermus scotoductus)”.

The values above are taken from paper PMC8252718, “carba Nicotinamide Adenine Dinucleotide Phosphate: Robust Cofactor for Redox Biocatalysis” (Angewandte Chemie (International Ed. in English), 2021).
